From patent US11130960B2, “Methods for conferring or enhancing herbicide resistance on plants and/or alga with protoporphyrinogen oxidase variants” (FARM HANNONG CO., LTD., priority 2014, dated 2021) come the findings set out here.

Each structure is given as a SMILES string.

Common to all, as to test: Seed germination / growth on ½ MS medium containing herbicide
For assay [1], the system named is wild-type Arabidopsis thaliana (Col-0). Type of assay: in vivo. The conditions noted are these: ½ MS medium with 70 nM Tiafenacil, 50 uM glufosinate, or 70 nM Tiafenacil and 50 uM glufosinate. The procedure:
(§1) To examine tiafenacil resistance of T2 generation seeds which survived under treatment of 1 μM tiafenacil, among the CyPPO2 and CyPPO8 transformants, Arabidopsis thaliana seeds were sown in ½ MS medium (1.125 g/L of MS salt, 10 g/L of sucrose, 7 g/L of Agar) containing 70 nM tiafenacil. […] Therefore, survival under 70 nM tiafenacil means that a plant has resistance against tiafenacil.
(§2) In Arabidopsis thaliana transformant including CyPPO2 or CyPPO8 gene, which was obtained by transformation using the plant transformation vector prepared in Example 6, the PPO activity-inhibiting herbicide-resistant gene and glufosinate-resistant gene are expressed at the same time. Therefore, it was examined whether cross-treatment of Arabidopsis thaliana transformant with two herbicides, namely, PPO activity-inhibiting herbicide and glufosinate is effective for weed control. To this end, seeds of CyPPO2 and BAR gene-inserted Arabidopsis thaliana transformant, or CyPPO8 and BAR gene-inserted Arabidopsis thaliana transformant were sterilized and treated at low temperature of 4° C. for 2 days. The seeds were sown in a ½ MS medium (Duchefa), a ½MS medium containing 70 nM Tiafenacil, a ½MS medium containing 50 uM glufosinate, or a ½MS medium containing 70 nM Tiafenacil and 50 uM glufosinate, and grown at 23° C. under 16 hour-light/8 hour-dark conditions for 7-14 days. Arabidopsis thaliana on the herbicide media was CyPPO2 or CyPPO8-transformed seed and the wild-type Col0 as a control, respectively. The transformant and the control were cultured on herbicide media. After 2 weeks, they were examined.
(§3) In Example 9, it was confirmed that Arabidopsis thaliana transformant prepared in the present invention has resistance against the two PPO-based herbicides, Tiafenacil and Saflufenacil at the same time, and therefore, it was tested whether the cross-treatment of Arabidopsis thaliana transformant with Tiafenacil and Saflufenacil is effective for weed control. To this end, seeds of CyPPO2 or CyPPO8 gene-inserted Arabidopsis thaliana transformant were sterilized and treated at low temperature of 4° C. for 2 days. The seeds were sown in a ½ MS medium, a ½MS medium containing 70 nM Tiafenacil, a ½MS medium containing 70 nM Saflufenacil, or a ½MS medium containing 35 nM Tiafenacil and 35 nM Saflufenacil, and grown at 23° C. under 16 hour-light/8 hour-dark conditions for 7-14 days. Arabidopsis thaliana on the herbicide media was CyPPO2 or CyPPO8-transformed seed and the wild-type Col0 as a control, respectively. The transformant and the control were cultured on herbicide media. After 2 weeks, they were examined.

Another assay relates to CyPPO8 transformants. Type of assay: in vivo, Arabidopsis thaliana. Particulars: CyPPO8 and BAR gene-inserted; ½ MS medium with 70 nM Tiafenacil, 50 uM glufosinate, or both. The protocol:
as §1, §2, §3

The test system of a further assay is CyPPO2 transformants. It counts as in vivo, Arabidopsis thaliana. Particulars: CyPPO2 and BAR gene-inserted; ½ MS medium with 70 nM Tiafenacil, 50 uM glufosinate, or both. The procedure: as §1, §2, §3

Consider `CP(=O)(O)CCC(N)C(=O)O` (stereo not drawn) [glufosinate], for which the “germination / growth on herbicide medium after 2 weeks” value was “not germinated” in assay [1], “normally grew” with CyPPO8 transformants and “normally grew” in the assay with CyPPO2 transformants.
